This assay relates to SARS-CoV-2 (strain WK-521) and various variants thereof. Format: cell-based.

For `Nc1ncnc2c1c(CO)cn2[C@@H]1O[C@H](CO)[C@@H](O)[C@H]1O` [HUP1108, 5-hydroxymethyltubercidin], the “virus amount released from infected cells / antiviral activity against variant strains” value is “has antiviral activity against various variant strains of SARS-CoV-2”.

The record behind these values is patent publication US20240131046A1, “ANTI-VIRAL AGENT” (NATIONAL UNIVERSITY CORPORATION HOKKAIDO UNIVERSITY, priority 2021, published 2024).
